According to ChEMBL document CHEMBL4002627, “Quinolidene based monocarbonyl curcumin analogues as promising antimycobacterial agents: Synthesis and molecular docking study” (Bioorg Med Chem Lett, 2017):
In brackets after ≈: the same amount, converted by molar mass.

Legend:
Assay type in all cases: functional
[1] = tested on: Mycobacterium tuberculosis; assay: Antimycobacterial activity against dormant state of Mycobacterium bovis BCG by two fold dilution method; details: variant bovis BCG
[2] = tested on: Mycobacterium tuberculosis; assay: Antimycobacterial activity against dormant state of Mycobacterium bovis BCG assessed as growth inhibition at 30 ug/ml after 12 days by nitrate reductase assay relative to control; details: variant bovis BCG, 288 h, read-out: GI
[3] = tested on: Mycobacterium tuberculosis; assay: Antimycobacterial activity against dormant state of Mycobacterium bovis BCG assessed as growth inhibition at 10 ug/ml after 12 days by nitrate reductase assay relative to control; details: variant bovis BCG, 288 h, read-out: GI
[4] = tested on: Mycobacterium tuberculosis; assay: Antimycobacterial activity against dormant state of Mycobacterium bovis BCG assessed as growth inhibition at 3 ug/ml after 12 days by nitrate reductase assay relative to control; details: variant bovis BCG, 288 h, read-out: GI

Compound	MIC50 [1] [µg/mL]	MIC90 [1] [µg/mL]	inhibition of growth at 30 µg/mL [2] [%]	inhibition of growth at 10 µg/mL [3] [%]	inhibition of growth at 3 µg/mL [4] [%]
Cc1ccc2cc(/C=C3\CNC/C(=C\c4cc5ccc(C)cc5nc4Cl)C3=O)c(Cl)nc2c1	12.9 (≈ 27.2 µM)	> 30	89.8	43.4	33.8
Cc1ccc2cc(/C=C3\CN(C)C/C(=C\c4cc5ccc(C)cc5nc4Cl)C3=O)c(Cl)nc2c1	5.8 (≈ 11.9 µM)	15.4 (≈ 31.5 µM)	90.4	89.4	23.2
COc1ccc2nc(Cl)c(/C=C3\CN(C)C/C(=C\c4cc5cc(OC)ccc5nc4Cl)C3=O)cc2c1	> 30	> 30	31.9	13.3	22.9
O=C1/C(=C/c2cc3ccccc3nc2Cl)CNC/C1=C\c1cc2ccccc2nc1Cl	9.6 (≈ 21.5 µM)	> 30	79.7	50.6	38.3
O=C1/C(=C/c2cc3cc(Cl)ccc3nc2Cl)CNC/C1=C\c1cc2cc(Cl)ccc2nc1Cl	19.7 (≈ 38.2 µM)	> 30	77.6	24.6	37.5
CO[C@H]1/C=C/O[C@@]2(C)Oc3c(C)c(O)c4c(O)c(c(/C=N/N5CCN(C)CC5)c(O)c4c3C2=O)NC(=O)/C(C)=C\C=C\[C@H](C)[C@H](O)[C@@H](C)[C@@H](O)[C@@H](C)[C@H](OC(C)=O)[C@@H]1C [RIFAMPIN]	0.0043 (≈ 0.00523 µM)	0.0173 (≈ 0.021 µM)	–	–	–
Cc1cccc2cc(/C=C3\CNC/C(=C\c4cc5cccc(C)c5nc4Cl)C3=O)c(Cl)nc12	2.5 (≈ 5.27 µM)	> 30	77.1	66.7	52.1
Cc1cccc2cc(/C=C3\CN(C)C/C(=C\c4cc5cccc(C)c5nc4Cl)C3=O)c(Cl)nc12	20.8 (≈ 42.6 µM)	> 30	62.4	35.9	19.1
O=C1/C(=C/c2cc3cc(F)ccc3nc2Cl)CNC/C1=C\c1cc2cc(F)ccc2nc1Cl	2.1 (≈ 4.35 µM)	9.2 (≈ 19.1 µM)	96.1	93.4	61.9
COc1ccc2cc(/C=C3\CN(C)C/C(=C\c4cc5ccc(OC)cc5nc4Cl)C3=O)c(Cl)nc2c1	5.8 (≈ 11.1 µM)	9.4 (≈ 18.1 µM)	92.4	95.6	22.3
CN1C/C(=C\c2cc3cc(F)ccc3nc2Cl)C(=O)/C(=C/c2cc3cc(F)ccc3nc2Cl)C1	25.6 (≈ 51.6 µM)	> 30	63.8	1	17.6
CN1C/C(=C\c2cc3cc(Cl)ccc3nc2Cl)C(=O)/C(=C/c2cc3cc(Cl)ccc3nc2Cl)C1	3.3 (≈ 6.24 µM)	21.5 (≈ 40.6 µM)	96.2	82.1	49
COc1ccc2cc(/C=C3\CNC/C(=C\c4cc5ccc(OC)cc5nc4Cl)C3=O)c(Cl)nc2c1	1.4 (≈ 2.76 µM)	2.7 (≈ 5.33 µM)	96.8	98.3	94.6
CN1C/C(=C\c2cc3ccccc3nc2Cl)C(=O)/C(=C/c2cc3ccccc3nc2Cl)C1	6 (≈ 13 µM)	7.3 (≈ 15.9 µM)	97.5	61.7	31.7
COc1ccc2nc(Cl)c(/C=C3\CNC/C(=C\c4cc5cc(OC)ccc5nc4Cl)C3=O)cc2c1	11 (≈ 21.7 µM)	27.2 (≈ 53.7 µM)	97.2	48.4	28
Cc1ccc2nc(Cl)c(/C=C3\CN(C)C/C(=C\c4cc5cc(C)ccc5nc4Cl)C3=O)cc2c1	> 30	> 30	20.2	1	-5.7
Cc1ccc2nc(Cl)c(/C=C3\CNC/C(=C\c4cc5cc(C)ccc5nc4Cl)C3=O)cc2c1	> 30	> 30	45.9	38.5	35.3
